Measured values from patent US9040457B2, “Phenylamidines having a high fungicidal activity and use thereof” (ISAGRO S.P.A., priority 2010, dated 2015).

Assays:
Format in all cases: in vivo
[1] = test system: wheat plants; test: Phytotoxicity (percentage of leaf necrosis) on wheat plants, Puccinia recondita test; details: 0 = completely healthy plant, 100 = completely necrotized plant
Protocol: (§1) Leaves of wheat plants of the Salgemma variety, grown in pots in a conditioned environment kept at 20° C. and 70% of relative humidity (R.H.), were treated by spraying on both sides of the leaves with the compounds under examination, dispersed in hydroacetonic solutions at 20% by volume of acetone.
(§2) At the same time, the phytotoxicity was evaluated (percentage of leaf necrosis) induced on the wheat plants by the application of the products: in this case, the evaluation scale varies from 0 (completely healthy plant) to 100 (completely necrotized plant).

[2] = test system: Erysiphe graminis; test: Fungicidal activity in preventive application (5 days) against Erysiphe graminis on wheat; details: scale 100 = healthy plant, 0 = completely infected plant; for Activity P5, NT: parts developed during the test (NT); for Activity P5, T: parts treated directly (T)
Protocol: Determination of the Fungicidal Activity in Preventive Application (5 Days) Against Erysiphe graminis on Wheat
as §1
After remaining 5 days in a conditioned environment, the plants were infected under dry conditions by shaking over them, in order to distribute the inoculum, plants previously infected by Erysiphe graminis.
The plants were then maintained in the same cell, in a humidity-saturated environment and at a temperature ranging from 18 to 24° C. for 12 days.
(§3) At the end of this period, the external symptoms of the pathogen appeared and it was therefore possible to proceed with the evaluation of the intensity of the infection, on both the parts treated directly with the products (T), and also on the parts which had developed during the test (NT), by means of a visible percentage evaluation scale of the area of affected leafs; the scale comprises, as extremes, the value 100 (healthy plant) and the value 0 (completely infected plant).

[3] = test system: Puccinia recondita; test: Fungicidal activity in preventive application (5 days) against Puccinia recondita on wheat; details: scale 100 = healthy plant, 0 = completely infected plant; for Activity P5, NT: parts developed during the test (NT); for Activity P5, T: parts treated directly (T)
Protocol: Determination of the Fungicidal Activity in Preventive Application (5 Days) Against Puccinia recondita on Wheat
as §1
After remaining 5 days in a conditioned environment, the plants were sprayed on both sides of the leafs with an aqueous suspension of conidia of Puccinia recondita (2 mg of inoculum per 1 ml of solution for infection).
After being sprayed, the plants were kept in a humidity-saturated environment at a temperature ranging from 18 to 24° C. for the incubation period of the fungus (1 day).
After this period, the plants were put in a greenhouse with R.H. of 70% and at a temperature of 18-24° C. for 14 days.
as §3

[4] = test system: cereals, cucumbers, tomatoes and other important crops; test: Phytotoxicity of WO 00/46184 compounds on crops (background statement); details: at the doses which allow a good fungicidal activity
[5] = test system: wheat plants; test: Phytotoxicity (percentage of leaf necrosis) on wheat plants, Erysiphe graminis test; details: 0 = completely healthy plant, 100 = completely necrotized plant
Protocol: as §1, §2

[6] = test system: phytopathogenic fungi; test: Fungicidal activity of WO 00/46184 compound (background statement); details: only exerted satisfactorily in excessively high dosages

## Cc1cc(Oc2cccc(C(F)(F)F)c2)c(C)cc1N=CN(C)C [CR-1, N,N-dimethyl-N′-[4-(3-trifluoromethylphenoxy)-2,5-xylyl]-formamidine]
[1]; 30 ppm
  Phytotoxicity % N.F.: 14%
[1]; 125 ppm
  Phytotoxicity % N.F.: 26%
[2]; 30 ppm
  Activity P5, NT: 76%
  Activity P5, T: 90%
[2]; 125 ppm
  Activity P5, NT: 90%
  Activity P5, T: 100%
[3]; 30 ppm
  Activity P5, NT: 70%
  Activity P5, T: 80%
[3]; 125 ppm
  Activity P5, NT: 90%
  Activity P5, T: 100%
[4]
  leaf necrosis on crops: marked leaf necrosis
[5]; 30 ppm
  Phytotoxicity % N.F.: 15%
[5]; 125 ppm
  Phytotoxicity % N.F.: 25%

## Cc1cc(Sc2cccc(C(F)(F)F)c2)c(C)cc1N=CN(C)C [CR-2, N,N-dimethyl-N′-[4-(3-trifluoromethylphenylthio)-2,5-xylyl]-formamidine]
[1]; 30 ppm
  Phytotoxicity % N.F.: 0%
[1]; 125 ppm
  Phytotoxicity % N.F.: 0%
[2]; 30 ppm
  Activity P5, NT: 65%
  Activity P5, T: 78%
[2]; 125 ppm
  Activity P5, NT: 80%
  Activity P5, T: 95%
[3]; 30 ppm
  Activity P5, NT: 60%
  Activity P5, T: 68%
[3]; 125 ppm
  Activity P5, NT: 90%
  Activity P5, T: 95%
[6]
  fungicidal activity: insufficient
[5]; 30 ppm
  Phytotoxicity % N.F.: 0%
[5]; 125 ppm
  Phytotoxicity % N.F.: 0%

## CCN(C)C=Nc1cc(C)c(Oc2cccc(C(F)(F)F)c2)cc1C [CR-3, N-ethyl-N-methyl-N′-[4-(3-trifluoromethylphenoxy)-2,5-xylyl]formamidine]
[1]; 30 ppm
  Phytotoxicity % N.F.: 21%
[1]; 125 ppm
  Phytotoxicity % N.F.: 33%
[2]; 30 ppm
  Activity P5, NT: 85%
  Activity P5, T: 95%
[2]; 125 ppm
  Activity P5, NT: 96%
  Activity P5, T: 100%
[3]; 30 ppm
  Activity P5, NT: 85%
  Activity P5, T: 95%
[3]; 125 ppm
  Activity P5, NT: 100%
  Activity P5, T: 100%
[4]
  leaf necrosis on crops: marked leaf necrosis
[5]; 30 ppm
  Phytotoxicity % N.F.: 20%
[5]; 125 ppm
  Phytotoxicity % N.F.: 35%

## Cc1cc(Oc2cccc(OC(F)(F)F)c2)c(C)cc1N=CN(C)C [CR-4, N,N-dimethyl-N′-[4-(3-trifluoromethoxyphenoxy)-2,5-xylyl]formamidine]
[1]; 30 ppm
  Phytotoxicity % N.F.: 20%
[1]; 125 ppm
  Phytotoxicity % N.F.: 30%
[2]; 30 ppm
  Activity P5, NT: 70%
  Activity P5, T: 75%
[2]; 125 ppm
  Activity P5, NT: 90%
  Activity P5, T: 95%
[3]; 30 ppm
  Activity P5, NT: 65%
  Activity P5, T: 70%
[3]; 125 ppm
  Activity P5, NT: 85%
  Activity P5, T: 90%
[4]
  leaf necrosis on crops: marked leaf necrosis
[5]; 30 ppm
  Phytotoxicity % N.F.: 15%
[5]; 125 ppm
  Phytotoxicity % N.F.: 30%

## Cc1cc(Oc2cccc(OCC(F)(F)F)c2)c(C)cc1N=CN(C)C [CR-5, N,N-dimethyl-N′-{4-[3-(2,2,2-trifluoroethoxy)phenoxy]-2,5-xylyl}formamidine]
[1]; 30 ppm
  Phytotoxicity % N.F.: 15%
[1]; 125 ppm
  Phytotoxicity % N.F.: 25%
[2]; 30 ppm
  Activity P5, NT: 65%
  Activity P5, T: 70%
[2]; 125 ppm
  Activity P5, NT: 80%
  Activity P5, T: 90%
[3]; 30 ppm
  Activity P5, NT: 60%
  Activity P5, T: 65%
[3]; 125 ppm
  Activity P5, NT: 80%
  Activity P5, T: 85%
[4]
  leaf necrosis on crops: marked leaf necrosis
[5]; 30 ppm
  Phytotoxicity % N.F.: 20%
[5]; 125 ppm
  Phytotoxicity % N.F.: 30%

## CCN(C)C=Nc1cc(C)c(Sc2cccc(OC(F)F)c2)cc1C [Compound 1, N-ethyl-N-methyl-N′-[4-(3-difluoromethoxyphenylthio)-2,5-xylyl]formamidine]
[1]; 30 ppm
  Phytotoxicity % N.F.: 0%
[1]; 125 ppm
  Phytotoxicity % N.F.: 0%
[2]; 30 ppm
  Activity P5, NT: 100%
  Activity P5, T: 100%
[2]; 125 ppm
  Activity P5, NT: 100%
  Activity P5, T: 100%
[3]; 30 ppm
  Activity P5, NT: 100%
  Activity P5, T: 100%
[3]; 125 ppm
  Activity P5, NT: 100%
  Activity P5, T: 100%
[5]; 30 ppm
  Phytotoxicity % N.F.: 0%
[5]; 125 ppm
  Phytotoxicity % N.F.: 0%

## CCN(C)C=Nc1cc(C)c(Sc2cccc(OC(F)(F)C(F)F)c2)cc1C [Compound 2, N-ethyl-N-methyl-N′-{4-[3-(1,1,2,2-tetrafluoroethoxy)phenylthio]-2,5-xylyl}formamidine]
[1]; 30 ppm
  Phytotoxicity % N.F.: 0%
[1]; 125 ppm
  Phytotoxicity % N.F.: 0%
[2]; 30 ppm
  Activity P5, NT: 100%
  Activity P5, T: 100%
[2]; 125 ppm
  Activity P5, NT: 100%
  Activity P5, T: 100%
[3]; 30 ppm
  Activity P5, NT: 100%
  Activity P5, T: 100%
[3]; 125 ppm
  Activity P5, NT: 100%
  Activity P5, T: 100%
[5]; 30 ppm
  Phytotoxicity % N.F.: 0%
[5]; 125 ppm
  Phytotoxicity % N.F.: 0%

## CCN(C)C=Nc1cc(C)c(Sc2cccc(OCC(F)(F)F)c2)cc1C [Compound 15]
[1]; 30 ppm
  Phytotoxicity % N.F.: 0%
[1]; 125 ppm
  Phytotoxicity % N.F.: 0%
[2]; 30 ppm
  Activity P5, NT: 100%
  Activity P5, T: 100%
[2]; 125 ppm
  Activity P5, NT: 100%
  Activity P5, T: 100%
[3]; 30 ppm
  Activity P5, NT: 100%
  Activity P5, T: 100%
[3]; 125 ppm
  Activity P5, NT: 100%
  Activity P5, T: 100%
[5]; 30 ppm
  Phytotoxicity % N.F.: 0%
[5]; 125 ppm
  Phytotoxicity % N.F.: 0%

## CCN(C)C=Nc1cc(C)c(Sc2cccc(OCC(F)(F)C(F)F)c2)cc1C [Compound 19]
[1]; 30 ppm
  Phytotoxicity % N.F.: 0%
[1]; 125 ppm
  Phytotoxicity % N.F.: 0%
[2]; 30 ppm
  Activity P5, NT: 100%
  Activity P5, T: 100%
[2]; 125 ppm
  Activity P5, NT: 100%
  Activity P5, T: 100%
[3]; 30 ppm
  Activity P5, NT: 100%
  Activity P5, T: 100%
[3]; 125 ppm
  Activity P5, NT: 100%
  Activity P5, T: 100%
[5]; 30 ppm
  Phytotoxicity % N.F.: 0%
[5]; 125 ppm
  Phytotoxicity % N.F.: 0%

## CCN(C)C=Nc1cc(C)c(Sc2cccc(OCC(F)(F)C(F)(F)F)c2)cc1C [Compound 23]
[1]; 30 ppm
  Phytotoxicity % N.F.: 0%
[1]; 125 ppm
  Phytotoxicity % N.F.: 0%
[2]; 30 ppm
  Activity P5, NT: 100%
  Activity P5, T: 100%
[2]; 125 ppm
  Activity P5, NT: 100%
  Activity P5, T: 100%
[3]; 30 ppm
  Activity P5, NT: 100%
  Activity P5, T: 100%
[3]; 125 ppm
  Activity P5, NT: 100%
  Activity P5, T: 100%
[5]; 30 ppm
  Phytotoxicity % N.F.: 0%
[5]; 125 ppm
  Phytotoxicity % N.F.: 0%
